Assays:
[1] = molecular target: T1, cloned human m2 muscarinic receptor (Homo sapiens, UniProt P08172); assay: Binding to cloned human m2 muscarinic receptor (3H-QNB, CHO cell membranes); settings: affinity for the m2 receptor; 3H-QNB displacement
T1 sequence (P08172 1-466): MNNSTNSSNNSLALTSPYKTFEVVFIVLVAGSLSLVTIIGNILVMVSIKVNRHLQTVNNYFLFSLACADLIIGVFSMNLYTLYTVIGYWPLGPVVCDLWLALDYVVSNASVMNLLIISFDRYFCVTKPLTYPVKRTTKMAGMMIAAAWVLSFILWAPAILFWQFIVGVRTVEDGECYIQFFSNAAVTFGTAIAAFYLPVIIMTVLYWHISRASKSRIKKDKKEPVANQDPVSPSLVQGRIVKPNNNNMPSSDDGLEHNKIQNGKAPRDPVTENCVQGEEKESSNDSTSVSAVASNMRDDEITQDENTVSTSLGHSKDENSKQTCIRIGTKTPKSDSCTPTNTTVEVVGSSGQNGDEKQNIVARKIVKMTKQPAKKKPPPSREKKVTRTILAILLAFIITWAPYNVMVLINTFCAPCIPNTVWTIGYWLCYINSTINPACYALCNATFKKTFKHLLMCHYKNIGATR

H3 receptor = molecular target: T2, H3 receptor (Cavia porcellus, UniProt Q9JI35); assay: H3 receptor binding, displacement of radiolabeled Nα-methylhistamine from guinea pig brain membranes; settings: affinity for the H3 receptor
T2 construct: from tissue; host or cells: guinea pig brain membranes
Excerpt: Compounds can readily be evaluated to determine activity at H3 receptors by known methods, including the guinea pig brain membrane assay and the guinea pig neurogenic ileum contraction assay, both of which are described in U.S. Pat. No. 5,352,707. Another useful assay utilizes rat brain membranes and is described by West et al., “Identification of Two H3-Histamine Receptor Subtypes,” Molecular Pharmacology, Vol. 38, pages 610-613 (1990).
A particularly useful screening assay measures binding to sites in guinea pig brain membranes. This test is described in detail by Korte et al., “Characterization and Tissue Distribution of H3 Histamine Receptors in Guinea Pigs by N^α-Methylhistamine,” in Biochemical and Biophysical Research Communications, Vol. 168, pages 979-986 (1990), and quantifies the displacement of bound radiolabeled N^α-methylhistamine from tissues by candidate compounds. Results are expressed as “Ki” values, in nanoMolar (nM) units, which values can be considered as being dissociation constants for the H3 antagonist on the H3 receptor system, or an index of antagonist affinity for the receptor. In general, Ki values less than about 200 nM are considered necessary for an agent to be useful as an H3 antagonist in the invention.

T2 sequence (Q9JI35 whole entry): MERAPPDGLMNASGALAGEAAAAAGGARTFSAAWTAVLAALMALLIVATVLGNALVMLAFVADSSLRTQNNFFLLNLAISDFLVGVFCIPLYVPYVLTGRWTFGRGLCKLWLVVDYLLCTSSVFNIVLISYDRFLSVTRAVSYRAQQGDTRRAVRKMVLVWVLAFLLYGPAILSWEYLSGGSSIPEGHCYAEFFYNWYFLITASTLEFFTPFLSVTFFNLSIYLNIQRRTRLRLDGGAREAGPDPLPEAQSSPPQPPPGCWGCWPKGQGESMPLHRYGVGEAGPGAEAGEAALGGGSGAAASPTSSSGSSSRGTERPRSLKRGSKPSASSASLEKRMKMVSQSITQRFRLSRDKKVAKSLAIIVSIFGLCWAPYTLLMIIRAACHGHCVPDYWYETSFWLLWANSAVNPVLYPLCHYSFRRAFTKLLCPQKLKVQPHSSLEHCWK

Question: Which results are given for CCN(CC)CCOc1ccc(CN2CCC(C3CCN(Cc4ccc(C(=O)NC(C)C)cc4)CC3)CC2)cc1 [Compound 1]?
Answer: Ki [1]: 0.17 nM; Ki (H3 receptor): 18 nM

Question: How did the Ki [1] turn out when CCCS(=O)(=O)N1CCC(N2CCC(C3(c4ccc(S(=O)(=O)c5ccc6c(c5)OCO6)cc4)OCCO3)CC2)CC1 [Compound 2] was run?
Answer: The Ki was 0.01 nM.

Question: And the Ki (H3 receptor)?
Answer: The Ki was 140 nM.

Question: What does the source list for O=C(NCC1CC1)c1ccc(CN2CCC(C3CCN(Cc4ccc(C(=O)NCC5CC5)cc4)CC3)CC2)cc1 [Compound 3]?
Answer: Ki [1]: 0.125 nM; Ki (H3 receptor): 500 nM

Question: How did the Ki [1] turn out when c1ccc(CN2CCC(C3CCN(Cc4ccccc4)CC3)CC2)cc1 [Compound 4] was run?
Answer: The Ki was 3.4 nM.

Question: And the Ki (H3 receptor)?
Answer: The Ki was 620 nM.

Question: How did the Ki [1] turn out when CC(C)(C)OC(=O)N1CCC(C2CCN(Cc3ccc(S(=O)(=O)c4ccc5c(c4)OCO5)cc3)CC2)CC1 [Compound 5] was run?
Answer: The Ki was 2.6 nM.

Question: And the Ki (H3 receptor)?
Answer: The Ki was 430 nM.

Question: Cc1ccccc1C(=O)N1CCC(C2CCN(Cc3ccc(S(=O)(=O)c4ccc5c(c4)OCO5)cc3)CC2)CC1 [Compound 6] was tested. Which Ki [1] did it give?
Answer: Its Ki is 1.2 nM.

Question: And the Ki (H3 receptor)?
Answer: The Ki was 160 nM.

Question: What does the source list for CCN(CC)CCOc1ccc(CN2CCC(C3CCN(Cc4ccc(S(=O)(=O)c5ccc6c(c5)OCO6)cc4)CC3)CC2)cc1 [Compound 7]?
Answer: Ki [1]: 0.07 nM; Ki (H3 receptor): 22 nM

Question: With CN(C)CCCOc1ccc(CN2CCC(C3CCN(Cc4ccc(S(=O)(=O)c5ccc6c(c5)OCO6)cc4)CC3)CC2)cc1 [Compound 8] as the molecule, how does the Ki [1] read?
Answer: Its Ki is 0.05 nM.

Question: And the Ki (H3 receptor)?
Answer: Its Ki is 6 nM.

Question: O=C(NCC1CC1)c1ccc(CN2CCC(C3CCN(Cc4ccc(S(=O)(=O)c5ccc6c(c5)OCO6)cc4)CC3)CC2)cc1 [Compound 9] was tested. Which Ki [1] did it give?
Answer: The Ki was 0.22 nM.

Question: What about the Ki (H3 receptor) of the same molecule?
Answer: The Ki was 290 nM.

Question: Which results are given for CN(C)CCCOc1ccc(CN2CCC(N3CCC(C(=O)c4ccc(S(=O)(=O)c5ccc6c(c5)OCO6)cc4)CC3)CC2)cc1 [Compound 10]?
Answer: Ki [1]: 0.019 nM; Ki (H3 receptor): 15 nM

Question: What does the source list for CCN(CC)CCOc1ccc(CN2CCC(N3CCC(C(=O)c4ccc(S(=O)(=O)c5ccc6c(c5)OCO6)cc4)CC3)CC2)cc1 [Compound 11]?
Answer: Ki [1]: 0.018 nM; Ki (H3 receptor): 8 nM

Question: Which results are given for CCCCOc1ccc(CN2CCC(N3CCC(C(=O)c4ccc(S(=O)(=O)c5ccc6c(c5)OCO6)cc4)CC3)CC2)cc1 [Compound 12]?
Answer: Ki [1]: 4.8 nM; Ki (H3 receptor): 170 nM

Question: What does the source list for CN(C)CCCOc1ccc(CN2CCC(N3CCC(C4(c5ccc(S(=O)(=O)c6ccc7c(c6)OCO7)cc5)OCCO4)CC3)CC2)cc1 [Compound 13]?
Answer: Ki [1]: 0.8 nM; Ki (H3 receptor): 12 nM

Question: With CCN(CC)CCOc1ccc(CN2CCC(N3CCC(C4(c5ccc(S(=O)(=O)c6ccc7c(c6)OCO7)cc5)OCCO4)CC3)CC2)cc1 [Compound 14] as the molecule, how does the Ki [1] read?
Answer: Its Ki is 0.7 nM.

Question: And the Ki (H3 receptor)?
Answer: Its Ki is 2 nM.

Question: What does the source list for CCCCOc1ccc(CN2CCC(N3CCC(C4(c5ccc(S(=O)(=O)c6ccc7c(c6)OCO7)cc5)OCCO4)CC3)CC2)cc1 [Compound 15]?
Answer: Ki [1]: 0.17 nM; Ki (H3 receptor): 43 nM

Reference: US6906081B2, “Use of dual H3/M2 antagonists in the treatment of cognition deficit disorders” (Schering Corporation, priority 2001, dated 2005)
